Test system: gut microbiota
Test: Gut microbiome analysis (16S rRNA sequencing of fecal samples) in STAM model of NASH
Format: in vivo, C57BL/6J mice
Conditions: pre (baseline)
From the text: The study is reported in accordance with Animal Research: Reporting of In Vivo Experiments (ARRIVE) guidelines. C57BL/6J mice were obtained from Japan SLC, Inc. (Japan). All animals used in this study were cared for under the following guidelines: Act on Welfare and Management of Animals (Ministry of the Environment, Japan, Act No. 105 of Oct. 1, 1973), standards relating to the care and management of laboratory animals and relief of pain (Notice No. 88 of the Ministry of the Environment, Japan, Apr. 28, 2006) and the guidelines for proper conduct of animal experiments (Science Council of Japan, Jun. 1, 2006). Protocol approvals were obtained from SMC Laboratories, Japan's IACUC (Study reference no: […] Mice were maintained in a specific pathogen-free (SPF) facility under controlled conditions of temperature (23±3° C.), humidity (50±20%), lighting (12-hour artificial light and dark cycles; light from 8:00 to 20:00) and air exchange. The STAM model of NASH was induced as previously described [D10]. Mice were given a single subcutaneous injection of 200 μg streptozotocin (STZ, Sigma-Aldrich, USA) solution 2 days after birth and fed with a high-fat diet (HFD, 57 kcal % fat, Cat #HFD32, CLEA Japan, Inc., Japan) from 4-9 weeks of age. All mice develop liver steatosis and diabetes and at […] mice had established steatohepatitis, histologically. Studygroups: There were five study groups, described below. Eight mice were included in each study group. Eight NASH mice were orally administered vehicle supplemented with AFO-202 Beta Glucan at a dose of 1 mg/kg in a volume of 5 mL/kg once daily from 6 to 9 weeks of age. Eight NASH mice were orally administered vehicle supplemented with Telmisartan at a dose of 10 mg/kg once daily from 6 to 9 weeks of age. Frequency: Fecal samples were collected at the 6 weeks of age (before administration) and 9 weeks of age (before sacrifice). Procedure: At 6 weeks of age, fecal samples were collected from each mouse by clean catch method. […] A sterile petri dish was placed on the bench. Gently massage the abdomen, position the bottom of mouse over a fresh petri dish, and collect 1-2 fecal pellets. At sacrifice, fecal samples were aseptically collected from cecum. The tubes with feces were placed on ice immediately. These tubes were snap frozen in liquid nitrogen and stored at -80° C. for shipping. In this analysis, the 16S rRNA sequence data acquired by the next-generation sequencer from the fecal […] was used to perform community analysis using the QIIME2 program for microbial community analysis. The raw read data in FASTQ format output from the next-generation sequencer was trimmed to remove adapter sequences and low QV regions that may be included in the data. Cutadapt was used to remove adapter sequences from DNA sequencing reads. Trimmomatic was used as read trimming tool for Illumina NGS data. The adapter sequence was trimmed using the adapter trimming program “cutadapt” if the Trimming of the region at the end of the read sequence overlapped the corresponding sequence by at least one base (mismatch tolerance: 20%). When reads containing N were present in at least one of Read1 and Read2, both Read1 and Read2 were removed. Trimming of low QV regions was performed on the read data after processing using the QV trimming program “Trimmomatic” under the following conditions. The window of 20 bases is slid from the 5' side, and the area where the average QV is less than 20 is trimmed. After trimming, only the reads with more than 50 bases remaining in both Read1 and Read2 were taken as output. The microbial community analysis based on 16S rRNA sequence was performed on the sequence data trimmed in the previous section using the microbial community analysis program “QIIME2”. The annotation program “sklearn” included in QIIME2 is used to annotate the ASV (OTU) sequences. […]

CCCc1nc2c(C)cc(-c3nc4ccccc4n3C)cc2n1Cc1ccc(-c2ccccc2C(=O)O)cc1 [Telmisartan]
Abundance: Ruminococcaceae, Oscillospira, — (line r193): 57
Abundance: Lactobacillaceae, Lactobaccilus, reuteri (line r194): 0
Abundance: Coriobacteriaceae, Adlercreutzia, — (line r195): 58
Abundance: Lachnospiraceae, —, — (line r196): 0
Abundance: S24-7, —, — (line r197): 64
Abundance: Turicibacteraceae, Turicibacter, — (line r198): 0
Abundance: S24-7, —, — (line r199): 45
Abundance: Rikenellaceae, —, — (line r200): 25
Abundance: Enterobacteriaceae, Other, Other (line r201): 0
Abundance: Rikenellaceae, Other, Other (line r202): 47
Abundance: Lactobacillaceae, Lactobaccilus, Other (line r204): 0
Abundance: —, —, — (line r205): 60
Abundance: S24-7, —, — (line r206): 27
Abundance: S24-7, —, — (line r207): 35
Abundance: —, —, — (line r208): 85
Abundance: Enterobacteriaceae, Klebsiella, Other (line r209): 0
Abundance: —, —, — (line r210): 63
Abundance: Lachnospiraceae, Other, Other (line r211): 48
Abundance: Ruminococcaceae, Oscillospira, — (line r212): 0
Abundance: Ruminococcaceae, Oscillospira, — (line r213): 71
Abundance: Bacteroidaceae, Bacteroides, acidifaciens (line r214): 27
Abundance: Erysipelotrichaceae, —, — (line r215): 51
Abundance: Lachnospiraceae, Dorea, — (line r216): 98
Abundance: Enterobacteriaceae, Enterobacter, Other (line r217): 0
Abundance: Ruminococcaceae, Oscillospira, — (line r218): 42
Abundance: Ruminococcaceae, Other, Other (line r219): 61
Abundance: Ruminococcaceae, Oscillospira, — (line r220): 0
Abundance: Rikenellaceae, —, — (line r221): 31
Abundance: Lachnospiraceae, Other, Other (line r223): 98
Abundance: Other, Other, Other (line r224): 18
Abundance: Ruminococcaceae, Oscillospira, — (line r225): 79
Abundance: S24-7, —, — (line r226): 38
Abundance: Lachnospiraceae, —, — (line r227): 3
Abundance: Streptococcaceae, Staphylococcus, — (line r228): 0
Abundance: —, —, — (line r229): 96
Abundance: —, —, — (line r230): 87
Abundance: —, —, — (line r231): 0
Abundance: Other, Other, Other (line r232): 10
Abundance: Aerococcaceae, Aerococcus, — (line r233): 0
Abundance: Ruminococcaceae, —, — (line r234): 0
Abundance: —, —, — (line r235): 61
Abundance: Streptococcaceae, Staphylococcus, — (line r236): 0
Abundance: Ruminococcaceae, Oscillospira, — (line r237): 0
Abundance: —, —, — (line r238): 0
Abundance: Ruminococcaceae, Ruminococcus, — (line r239): 0
Abundance: —, —, — (line r240): 6
Abundance: Other, Other, Other (line r241): 0
Abundance: Ruminococcaceae, Oscillospira, — (line r242): 30
Abundance: Lachnospiraceae, [Ruminococcus], gnavus (line r243): 27
Abundance: Lachnospiraceae, —, — (line r244): 0
Abundance: Other, Other, Other (line r245): 0
Abundance: Ruminococcaceae, Oscillospira, — (line r246): 37
Abundance: —, —, — (line r247): 69
Abundance: Other, Other, Other (line r248): 0
Abundance: Other, Other, Other (line r249): 0
Abundance: Other, Other, Other (line r250): 68
Abundance: Lachnospiraceae, Clostridium, Other (line r251): 0
Abundance: Lachnospiraceae, —, — (line r252): 0
Abundance: Other, Other, Other (line r253): 13
Abundance: Other, Other, Other (line r254): 23
Abundance: Ruminococcaceae, Oscillospira, — (line r255): 25
Abundance: Desulfovibrionaceae, —, — (line r256): 23
Abundance: Dehalobacteriaceae, Dehalobacterium, — (line r257): 24
Abundance: Ruminococcaceae, Ruminococcus, — (line r259): 44
Abundance: Lachnospiraceae, Coprococcus, — (line r260): 23
Abundance: Ruminococcaceae, Oscillospira, — (line r261): 0
Abundance: Other, Other, Other (line r262): 0
Abundance: Lachnospiraceae, Coprococcus, — (line r263): 34
Abundance: Ruminococcaceae, Oscillospira, — (line r264): 87
Abundance: Christensenellaceae, —, — (line r265): 37
Abundance: S24-7, —, — (line r266): 44
Abundance: Ruminococcaceae, Oscillospira, — (line r267): 95
Abundance: Lachnospiraceae, Coprococcus, — (line r268): 11
Abundance: Lachnospiraceae, Other, Other (line r269): 0
Abundance: Erysipelotrichaceae, Clostridium, cocleatum (line r271): 16
Abundance: —, —, — (line r272): 92
Abundance: Desulfovibrionaceae, Bilophila, — (line r273): 11
Abundance: —, —, — (line r274): 107
Abundance: Corynebacteriaceae, Corynebacterium, stationis (line r275): 0
Abundance: Lachnospiraceae, Other, Other (line r276): 0
Abundance: Lachnospiraceae, Other, Other (line r277): 0
Abundance: Lachnospiraceae, —, — (line r278): 14
Abundance: Lachnospiraceae, —, — (line r279): 31
Abundance: —, —, — (line r280): 108
Abundance: —, —, — (line r281): 0
Abundance: —, —, — (line r282): 0
Abundance: Ruminococcaceae, —, — (line r283): 27
Abundance: —, —, — (line r284): 96
Abundance: Lachnospiraceae, —, — (line r285): 90
Abundance: Dehalobacteriaceae, Dehalobacterium, — (line r286): 3
Abundance: Other, Other, Other (line r287): 0
Abundance: Streptococcaceae, Streptococcus, luteciae (line r288): 12
Abundance: —, —, — (line r289): 0
Abundance: S24-7, —, — (line r290): 0
Abundance: Ruminococcaceae, Ruminococcus, — (line r292): 10
Abundance: Lachnospiraceae, Clostridium, Other (line r293): 26
Abundance: —, —, — (line r294): 10
Abundance: Ruminococcaceae, Oscillospira, — (line r295): 11
Abundance: Lachnospiraceae, Coprococcus, — (line r296): 20
Abundance: —, —, — (line r297): 12
Abundance: S24-7, —, — (line r298): 0
Abundance: Lachnospiraceae, —, — (line r300): 0
Abundance: Ruminococcaceae, Oscillospira, — (line r301): 54
